Source: patent US20230079439A1, “Compositions and Methods for Enhancing Beta Cell Maturation, Health and Function” (THE REGENTS OF THE UNIVERSITY OF CALIFORNIA, priority 2016, published 2023)
Ends that are not written are not given here.

System: INS-1E cells
Assay: Insulin content (RIA) of INS-1E lysates
Assay type: cell-based, rat
Details: 24 h
Protocol: FIG. 7, comprising FIG. 7A through FIG. 7G, depicts the evaluation of the biological activity of HSA-28P in INS-1E cells. FIG. 7A depicts dose-response analysis of the effect of HSA-28P on the rate of insulin secretion in INS-1E cells. The INS-1E cells were grown and trypsinized as described in Methods. Subsequently, cells were mixed with the indicated concentrations of HSA-28P (red columns), non-relevant peptide nanoparticles (NRPNP, green columns), and naked nanoparticles (NP, blue columns) and were seeded in 12-well plates. After 24 h the cells were taken to a GSIS in the presence of 2.5 mM (weak color bars) or 16.7 mM (strong color bars) glucose. […] INS-1E cells were treated as described in Panel D. Cells were detached by trypsin and counted as described in Methods and then were visualized with a Cells Sense Live Imaging microscope. […]
The lysis buffer contained 50 mmol/L Tris-HCl, pH 7.5, 1 mmol/L EDTA, 1 mmol/L EGTA, 1 mmol/L Na3VO4, 150 mmol/L NaCl, 50 mmol/L NaF, 10 mmol/L sodium-glycerophosphate, 5 mmol/L sodium pyrophosphate, and 1 mmol/L PMSF, supplemented with 0.1% (v/v) IGEPAL, 0.1% (v/v) 2-β-mercaptoethanol, and protease inhibitor cocktail (1:100 dilution). […] Protein content in the supernatant was determined by Bradford analysis, using a BSA standard dissolved in the same buffer. […]

HSA-112: HSA-28 dimer formed by bridging two HSA-28 monomers via amide bond formation with active ester PEG2,000 (QQGEFLNYD-NH2; not fully specified (N-terminus); also: dimer of two HSA-28 monomers bridged via amide bonds with active ester PEG2000)
effect on cellular / total insulin content: did not affect the cellular insulin content
